# Source: patent US12247216B2, “Pluripotent cell aggregates and use thereof” (ALEPH FARMS LTD., priority 2019, dated 2025)
# Tested on: bESC lines Alp 0501 and Alp 0505
# Assay: bESC differentiation to mesoderm, qPCR of Oct4 and Brachyury
# Type: cell-based, bovine
# Details: 8 μM CHIR 99021 added to Essential 6 medium, aggregates expanded three days, FIG. 5
# Procedure: Quantitative PCR (qPCR) analysis was performed as follows: • 1. Total RNA was extracted from the cells using GeneJET RNA purification kit (Thermo Fisher Scientific). • 2. Reverse transcription was carried out with RevertAid First Strand cDNA Synthesis Kit (Thermo Fisher Scientific). 3. Quantitative PCR (qPCR) was performed to analyze expression of specific genes using specific primers designed for use in probe-based detection method. • 4. All expression data were normalized to beta-actin. Relative quantification of fold change was calculated using the comparative Ct (ΔΔCt) method. Initial differentiation of bESC to mesoderm: • 1. Cells were harvested and seeded for aggregates formation in 6-well plates as detailed in example 4 below. • 2. The initial conditions were: • a. bESC in the growth medium mTeSR1 (StemCell technologies) • b. bESC in the growth medium Essential 8 (Thermo Fisher Scientific) • 3. Four days after seeding, the medium was replaced to form the following conditions: • a. Medium of bESC aggregates formed in mTeSR1 remained. • b. Medium of bESC aggregates formed in Essential 8 medium was replaced to Essential 6 medium (Thermo Fisher Scientific) • Or— • c. Medium of bESC aggregates formed in Essential 8 medium was replaced to Essential 6 supplemented with 8 μM CHIR 99021. • 4. […]
structure (smiles),measurement,value
"Cc1cnc(-c2cnc(NCCNc3ccc(C#N)cn3)nc2-c2ccc(Cl)cc2Cl)[nH]1 [CHIR 99021, 6-[[2-[[4-(2,4-Dichlorophenyl)-5-(5-methyl-1H-imidazol-2-yl)-2-pyrimidinyl]amino]ethyl]amino]-3-pyridinecarbonitrile]",Brachyury expression (initial mesoderm marker),increase
same,Oct4 expression (pluripotency marker),additional decrease
